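GI50 marks 50% less growth. TGI marks complete inhibition of growth.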
Tests used:
Test in all cases: NCI-60 cell line screen, 384-well format
HCT-116 colon = system: HCT-116 colon
SN12C renal = system: SN12C renal
HCC-2998 colon = system: HCC-2998 colon
CCRF-CEM leukemia = system: CCRF-CEM leukemia
NCI-H460 NSCLC = system: NCI-H460 NSCLC
KM12 colon = system: KM12 colon
MDA-MB-468 breast = system: MDA-MB-468 breast
SK-OV-3 ovarian = system: SK-OV-3 ovarian
A549 NSCLC = system: A549 NSCLC
M14 melanoma = system: M14 melanoma
T-47D breast = system: T-47D breast
NCI-H522 lung = system: NCI-H522 lung
ACHN renal = system: ACHN renal
OVCAR-8 ovarian = system: OVCAR-8 ovarian
MOLT-4 leukemia = system: MOLT-4 leukemia
SF-295 CNS = system: SF-295 CNS
SR leukemia = system: SR leukemia
786-0 renal = system: 786-0 renal
HL-60(TB) leukemia = system: HL-60(TB) leukemia
NCI-H322M lung = system: NCI-H322M lung
U251 glioblastoma = system: U251 glioblastoma
UACC-257 melanoma = system: UACC-257 melanoma
SF-268 CNS = system: SF-268 CNS
SK-MEL-5 melanoma = system: SK-MEL-5 melanoma
COLO 205 colon = system: COLO 205 colon
RPMI-8226 leukemia = system: RPMI-8226 leukemia
SNB-75 CNS = system: SNB-75 CNS
MCF7 breast = system: MCF7 breast
HS 578T breast = system: HS 578T breast
PC-3 prostate = system: PC-3 prostate
OVCAR-5 ovarian = system: OVCAR-5 ovarian
CAKI-1 renal = system: CAKI-1 renal
DU-145 prostate = system: DU-145 prostate
HT29 colon = system: HT29 colon
SW-620 colon = system: SW-620 colon
HCT-15 colon = system: HCT-15 colon
SK-MEL-28 melanoma = system: SK-MEL-28 melanoma
EKVX NSCLC = system: EKVX NSCLC
OVCAR-4 ovarian = system: OVCAR-4 ovarian
A498 renal = system: A498 renal
RXF 393 renal = system: RXF 393 renal
IGROV1 ovarian = system: IGROV1 ovarian
MALME-3M melanoma = system: MALME-3M melanoma
HOP-92 NSCLC = system: HOP-92 NSCLC
SF-539 CNS = system: SF-539 CNS
UACC-62 melanoma = system: UACC-62 melanoma
LOX IMVI melanoma = system: LOX IMVI melanoma
HOP-62 NSCLC = system: HOP-62 NSCLC
MDA-MB-231 breast = system: MDA-MB-231 breast
NCI-H23 lung = system: NCI-H23 lung
OVCAR-3 ovarian = system: OVCAR-3 ovarian
NCI/ADR-RES ovarian = system: NCI/ADR-RES ovarian
MDA-MB-435 melanoma = system: MDA-MB-435 melanoma
SK-MEL-2 melanoma = system: SK-MEL-2 melanoma
TK-10 renal = system: TK-10 renal
K-562 leukemia = system: K-562 leukemia
SNB-19 CNS = system: SNB-19 CNS
BT-549 breast = system: BT-549 breast

## COc1cc(F)ccc1-c1ncnc(Nc2cccc(CS(C)(=N)=O)c2)n1 (centres undefined)
HCT-116 colon
  GI50: 300 nM
  TGI: > 100000 nM
SN12C renal
  GI50: 668 nM
  TGI: 3520 nM
HCC-2998 colon
  GI50: 1000 nM
  TGI: 3770 nM
CCRF-CEM leukemia
  GI50: 299 nM
  TGI: 1050 nM
NCI-H460 NSCLC
  GI50: 815 nM
  TGI: 3560 nM
KM12 colon
  GI50: 322 nM
  TGI: 2120 nM
MDA-MB-468 breast
  GI50: 1120 nM
  TGI: 2470 nM
SK-OV-3 ovarian
  GI50: 2550 nM
  TGI: 6680 nM
A549 NSCLC
  GI50: 1610 nM
  TGI: > 100000 nM
M14 melanoma
  GI50: 980 nM
  TGI: 3860 nM
T-47D breast
  GI50: 3010 nM
  TGI: > 100000 nM
NCI-H522 lung
  GI50: 1770 nM
  TGI: 4120 nM
ACHN renal
  GI50: 510 nM
  TGI: > 100000 nM
OVCAR-8 ovarian
  GI50: 520 nM
  TGI: 2610 nM
MOLT-4 leukemia
  GI50: 506 nM
  TGI: 1620 nM
SF-295 CNS
  GI50: 1210 nM
  TGI: 5070 nM
SR leukemia
  GI50: 39.5 nM
  TGI: 112 nM
786-0 renal
  GI50: 683 nM
  TGI: 3880 nM
HL-60(TB) leukemia
  GI50: 182 nM
  TGI: 391 nM
NCI-H322M lung
  GI50: 384 nM
  TGI: 2610 nM
U251 glioblastoma
  GI50: 872 nM
  TGI: > 19900 nM
UACC-257 melanoma
  GI50: 1600 nM
  TGI: 3440 nM
SF-268 CNS
  GI50: 331 nM
  TGI: 1410 nM
SK-MEL-5 melanoma
  GI50: 455 nM
  TGI: 1840 nM
COLO 205 colon
  GI50: 339 nM
  TGI: 1920 nM
RPMI-8226 leukemia
  GI50: 1700 nM
  TGI: 3080 nM
SNB-75 CNS
  GI50: 592 nM
  TGI: 2180 nM
MCF7 breast
  GI50: 408 nM
  TGI: > 100000 nM
HS 578T breast
  GI50: 465 nM
  TGI: 1690 nM
PC-3 prostate
  GI50: 795 nM
  TGI: 4960 nM
OVCAR-5 ovarian
  GI50: 316 nM
  TGI: > 100000 nM
CAKI-1 renal
  GI50: 404 nM
  TGI: > 100000 nM
DU-145 prostate
  GI50: 402 nM
  TGI: 3750 nM
HT29 colon
  GI50: 1400 nM
  TGI: 4150 nM
SW-620 colon
  GI50: 776 nM
  TGI: 4820 nM
HCT-15 colon
  GI50: 462 nM
SK-MEL-28 melanoma
  GI50: 572 nM
  TGI: 2360 nM
EKVX NSCLC
  GI50: 1280 nM
  TGI: 4280 nM
OVCAR-4 ovarian
  GI50: 1830 nM
  TGI: 6090 nM
A498 renal
  GI50: 448 nM
RXF 393 renal
  GI50: 228 nM
  TGI: 586 nM
IGROV1 ovarian
  GI50: 919 nM
  TGI: > 100000 nM
MALME-3M melanoma
  GI50: 843 nM
  TGI: 2300 nM
HOP-92 NSCLC
  GI50: 1700 nM
  TGI: > 23900 nM
SF-539 CNS
  GI50: 986 nM
  TGI: 2820 nM
UACC-62 melanoma
  GI50: 240 nM
  TGI: 1080 nM
LOX IMVI melanoma
  GI50: 312 nM
  TGI: 1660 nM
HOP-62 NSCLC
  GI50: 330 nM
  TGI: 1500 nM
MDA-MB-231 breast
  GI50: 559 nM
  TGI: 2680 nM
NCI-H23 lung
  GI50: 568 nM
  TGI: 2240 nM
OVCAR-3 ovarian
  GI50: 384 nM
  TGI: 1810 nM
NCI/ADR-RES ovarian
  GI50: 2580 nM
  TGI: 21800 nM
MDA-MB-435 melanoma
  GI50: 1440 nM
  TGI: > 19700 nM
SK-MEL-2 melanoma
  GI50: 1040 nM
  TGI: 2460 nM
TK-10 renal
  GI50: 819 nM
  TGI: > 100000 nM
K-562 leukemia
  GI50: 2000 nM
  TGI: 15000 nM
SNB-19 CNS
  GI50: 988 nM
  TGI: > 100000 nM
BT-549 breast
  GI50: 773 nM
  TGI: 2600 nM

Source: PubChem BioAssay (NCI)
